The record followed here is PMC9655119, “Sustained Activation of CLR/RAMP Receptors by Gel-Forming Agonists” (International Journal of Molecular Sciences, 2022).

Usually EC50 stands for the concentration at which the effect is half-maximal.

The target of one data set is T1, human CLR/RAMP1 (Homo sapiens, UniProt O60894+Q16602).
T1 construct: host or cells: 1321N1 cells (cAMP Hunter cell line)
The experiment in a line: CLR/RAMP1 receptor-activation assay (DiscoverX cAMP Hunter, HitHunter cAMP XS+). In kind it is cell-based. As for the experimental part: (§1) The bioactivity of peptide analogs was studied using CLR/RAMP1, CLR/RAMP2, and CLR/RAMP3 assays by DiscoveRx (Fremont, CA, USA) in cells that stably express human CLR/RAMP1 (1321N1 cells), CLR/RAMP2 (CHO-K1 cells), or CLR/RAMP3 (CHO-K1 cells). The dose-dependent stimulatory effect of agonists was studied in duplicate, at 10 different concentrations. Determination of the half-maximal effective concentration (EC50) was performed using a 10-point dose-response curves. The starting concentration was 1.0 μM, and it was serially diluted 3-fold, in DMSO.
Cells were seeded in a total volume of 20 μL into 384-well microplates, and the activity was determined using the DiscoverX HitHunter cAMP XS + assay. Before the assay, media was aspirated from cells and replaced with 15 μL 2:1 HBSS/10 mM Hepes: cAMP XS + Ab reagent. Intermediate dilution of samples was performed to generate 4X sample in assay buffer, and 5 μL of the 4X sample was added to cells and incubated at 37°C. Vehicle concentration was 1%.
The chemiluminescent signal was read with a PerkinElmer instrument.

The target of a further data set is T2, human CLR/RAMP2 (Homo sapiens, UniProt O60895+Q16602).
T2 construct: host or cells: CHO-K1 cells (PathHunter β-Arrestin cell line)
The experiment in a line: CLR/RAMP2 receptor-activation assay (PathHunter β-Arrestin). The class given is cell-based. Here is the method: as §1
In this assay, the CLR was fused in frame with a small enzyme donor fragment ProLink™ (PK). The receptor was co-expressed with a fusion protein of β-arrestin and an N-terminal deletion mutant of β-galactosidase (i.e., enzyme acceptor). Activation of the CLR/RAMP2 receptor stimulated the binding of β-arrestin to the PK-tagged receptor and led to an increase in enzyme activities which can then be measured with the PathHunter detection reagents. PathHunter cell lines were seeded in a total volume of 20 μL into 384-well microplates and incubated at 37 °C prior to the assay. Intermediate dilution of samples was performed to generate 5X samples in the assay buffer. A 5 μL aliquot of 5X sample was added to cells and incubated at 37 °C for 90 min. Vehicle concentration was 1%.

The nature of data set [1]: Passage of peptide molecules through Centricon filters. In kind it is physicochemical. As for the experimental part:
To evaluate whether gel formation reduces the movement of peptide molecules in solution, we used the Centricon® filters (Millipore) to separate samples and the carriers based on their molecular mass. The sample is monomeric peptide, and the carrier is the self-assembled gel. […] Ten minutes later, the solution was diluted to the 0.1% level, and aliquots of the samples were dispensed into separate Centricon columns (30,000 MW cutoff). The monomeric peptides and gel molecules were separated by centrifugation for 15 min (2000× g). The level of peptide in the elutes was determined by specific EIAs (Phoenix Pharmaceuticals Inc., Burlingame, CA, USA).

Data set [2] in a line: Release of Analog C-6 from the gel solution in vivo (single-dose pharmacokinetics). To be noted: plasma. More on the design: species or system Sprague–Dawley rats. As for the experimental part:
Single-dose pharmacokinetics of the Analog C-6 gel solution was investigated in male Sprague–Dawley rats. Rats received a gel solution via the subcutaneous route, and blood samples were collected at pre-dose, 8 h, 1, 2, 4, and 8 days via a catheter that had been cannulated to the jugular vein. Plasma was obtained by centrifugation, and the peptide level in samples was determined by specific ADM EIA (Phoenix Pharmaceuticals Inc.).

The nature of data set [3]: Microrheology viscosity assay (Rheosense viscometer). The class given is physicochemical. The settings on record: 5% peptide solution in 5% glucose. As for the experimental part: We initially determined the gel-forming capability of peptides qualitatively based on a visual examination of the gel solution using a tube-tapping method. Once we have a rough estimate of the gel-forming capability, we quantitatively determine the viscosity of select peptides using a Rheosense viscometer (Rheosense Inc.; http://www.rheosense.com, accessed on 1 December 2019). In the visual assay, aliquots of peptides were dissolved in an aqueous solution (i.e., de-ionized water, saline, or 5% glucose solution). The peptide that dissolves instantly and stays as a clear solution without obvious macroscopic change in viscosity at 20 min after mixing was considered soluble. If macroscopic particles of peptides remained in the solution for 20 min after mixing, the peptide was considered insoluble. […] In addition, we quantitatively determined the viscosity of Analog C-6 and control peptides using a viscometer. The Rheosense microrheology viscometer uses a “chip” flow channel to quantify the viscosity of a solution as small as 50 μL. After loading the aqueous solution, the sample was injected through the flow channel with multiple pressure sensors, and the rheological properties were determined based on the standard principles of rheometry.

T2 sequence (Q16602 23-461): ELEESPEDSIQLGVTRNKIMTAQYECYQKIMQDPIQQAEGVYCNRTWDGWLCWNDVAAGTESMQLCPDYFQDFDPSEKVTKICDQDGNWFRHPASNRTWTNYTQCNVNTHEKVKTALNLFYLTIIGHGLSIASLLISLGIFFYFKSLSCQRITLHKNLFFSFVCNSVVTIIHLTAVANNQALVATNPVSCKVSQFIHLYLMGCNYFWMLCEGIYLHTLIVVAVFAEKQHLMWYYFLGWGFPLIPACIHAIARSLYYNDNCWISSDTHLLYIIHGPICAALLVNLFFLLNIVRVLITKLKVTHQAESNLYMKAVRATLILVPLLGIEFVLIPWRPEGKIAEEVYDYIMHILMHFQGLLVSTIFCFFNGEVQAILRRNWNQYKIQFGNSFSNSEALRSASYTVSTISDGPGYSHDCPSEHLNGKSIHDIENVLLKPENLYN
T2 sequence (O60895 43-175): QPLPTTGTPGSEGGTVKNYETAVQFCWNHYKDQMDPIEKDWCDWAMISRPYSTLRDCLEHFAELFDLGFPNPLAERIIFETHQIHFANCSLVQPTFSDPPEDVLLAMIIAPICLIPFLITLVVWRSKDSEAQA
T1 sequence (Q16602 23-461): as the sequence (Q16602 23-461) above
T1 sequence (O60894 27-148): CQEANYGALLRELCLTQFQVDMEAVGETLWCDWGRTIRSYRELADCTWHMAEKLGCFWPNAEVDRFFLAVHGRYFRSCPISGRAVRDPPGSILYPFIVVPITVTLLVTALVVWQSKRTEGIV

Take `CCCCCCCCCCCCCCCC(=O)NCCCC[C@H](N)C(=O)NCC(=O)N[C@H]1CSSC[C@@H](C(=O)N[C@H](C(=O)N[C@H](C(=O)N[C@@H](CCC(N)=O)C(=O)N[C@@H](CCCCN)C(=O)N[C@@H](CC(C)C)C(=O)N[C@@H](C)C(=O)N[C@@H](Cc2c[nH]cn2)C(=O)N[C@@H](CCC(N)=O)C(=O)N[C@H](C(=O)N[C@@H](Cc2ccc(O)cc2)C(=O)N[C@@H](CCC(N)=O)C(=O)N[C@@H](Cc2ccccc2)C(=O)N[C@H](C(=O)N[C@@H](CC(=O)O)C(=O)N[C@@H](CCCCN)C(=O)N[C@@H](CC(=O)O)C(=O)N[C@@H](CCCCN)C(=O)N[C@@H](CC(=O)O)C(=O)N[C@@H](CC(N)=O)C(=O)N[C@H](C(=O)N[C@@H](C)C(=O)N2CCC[C@H]2C(=O)N[C@@H](CCCNC(=N)N)C(=O)N[C@@H](CO)C(=O)N[C@@H](CCCCN)C(=O)N[C@H](C(=O)N[C@@H](CO)C(=O)N2CCC[C@H]2C(=O)N[C@@H](CCC(N)=O)C(=O)NCC(=O)N[C@@H](Cc2ccc(O)cc2)C(N)=O)[C@@H](C)CC)C(C)C)[C@@H](C)O)[C@@H](C)CC)C(C)C)[C@@H](C)O)NC(=O)[C@H]([C@@H](C)O)NC(=O)CNC(=O)[C@H](Cc2ccccc2)NC(=O)[C@H](CCCNC(=N)N)NC1=O` [Analog C-6]: the EC50 at human CLR/RAMP1 (1321N1 cells stably expressing human CLR/RAMP1, cAMP read-out, 10-point dose-response in duplicate, start 1.0 μM, 3-fold serial dilution in DMSO) was determined as 24 nM; on human CLR/RAMP2 (CHO-K1 cells stably expressing human CLR/RAMP2, β-arrestin recruitment, 90 min at 37 °C, 10-point dose-response in duplicate, start 1.0 μM, 3-fold dilution in DMSO), 2.8 nM. Also, the Emax at human CLR/RAMP1 (percentage of positive control β-CGRP, read-out: CLR/RAMP1 Max Activity) is 78%; on human CLR/RAMP2 ([…], percentage of positive control ADM1-52, read-out: CLR/RAMP2 Max Activity), 87%. Further, the “solubility in saline solution” value in data set [1] (0.1% peptide in saline) is on record as “low solubility”. Moreover, in data set [2] (male Sprague–Dawley rats, s.c., 32 mg in 16% gel solution, ADM EIA, n = 3), the “time during which circulating level was significantly increased” value was 8 to 48 h. Moreover, the Tmax in data set [2] (male, Sprague-Dawley, rat, sc, 32 mg, read-out: time of peak circulating peptide level) is 8 h.

Consider “adrenomedullin [ADM, reference compound]”, for which the “viscosity compared with water” value in data set [3] was “significantly higher than that of water”. Moreover, the “peptide level in Centricon elute, 5% and 20% solution groups versus 0.1% solution” value in data set [1] (Centricon 30,000 MW cutoff, 2000× g 15 min, 5% glucose, samples diluted to 0.1% after 10 min, CGRP or ADM EIA, triplicate) is listed as “lower than that of the 0.1% solution group”.
